This note sets out measurements from patent publication US12649748B2, “Wee1 inhibitor and use thereof” (JIANGSU TASLY DIYI PHARMACEUTICAL CO., LTD., priority 2021, dated 2026).

Converted amounts (≈) assume the structure as drawn. Read-outs that look alike come from different tables or passages of the source. Bounds are passed on as bounds.

By IC50 is commonly meant the concentration that gives 50% inhibition. What is called solubility is the concentration that dissolves in the medium under given conditions. Low values mean a poorly soluble substance, high ones a readily soluble substance. What is called Papp A→B is how fast a substance crosses the layer from the apical side. Higher therefore signals fast passage. In general, Papp B→A refers to the apparent permeability from the basolateral to the apical side of a cell layer. Usually Cmax stands for the highest concentration seen after dosing.

One data set has as its target T1, Wee1 protein (Homo sapiens, UniProt P30291).
T1 construct: purchased Thermo Fisher PR7373A
Kind of data set: Binding of compound to Wee1 protein and Tracer 178 by TR-FRET. The conditions noted are these: inhibitory activity against Wee1 kinase, read-out: IC50 measured value. The protocol: First, solutions of the compounds in different concentration gradients were prepared. […] DMSO was added as a positive control (maximal signal control) and a negative control (minimal signal control) and a final level of 0.25% DMSO was ensured in each reaction well.
WEE1 (Thermo Fisher, Cat #PR7373A) protein in buffer (50 mM Hepes pH 7.5, 10 mM MgCl2, 1 mM EGTA, 0.01% Brij-35) at 15 nM) in different concentrations of compound, and Tracer 178 (Invitrogen, PV5593) and MAb Anti-GST-Eu crypate (Cisbio, 61GSTKLA) were added to 384-well plates (Corning, cat #3574), centrifuged at 1000 rpm for 1 min and the 384-well plates were incubated in a constant temperature shaker for 60 min at 25° C. and 300 rpm. Tracer 178 and MAb Anti-GST-Eu crypate were prepared in buffer (50 mM HEPES pH 7.5, 10 mM MgCl2, 1 mM EGTA, 0.01% Brij-35) with a final reaction concentration of 50 nM for Tracer 178 and a final concentration of 2 nM for MAb Anti-GST-Eu crypate, where the negative control (minimal signal control) used an equal amount of buffer in place of the protein solution.
After incubation, readings were performed using BMG PHERAStar (excitation light at 337 nm and emission light at wavelength values of 620 nm and 665 nm to read the fluorescence signal values). […] The IC50 for inhibition of enzyme activity by the compounds was then calculated using GraphPad Prism 6 and fitted with a log (inhibitor) vs. response-Variable slope mode. The fitting equation was: Y=Bottom+(Top-Bottom)/(1+10^((Log IC50−X)*HillSlope)), where Y represents the percentage of residual enzyme activity known and X represents the known concentration of compound after the logarithm.
Background: Time-resolved FRET reads energy transfer from a long-lived donor to a nearby acceptor.

Another data set deals with H1299 cells. Briefly: Anti-proliferative effect by Cell Titer-Glo, H1299. The class given is cell-based. Particulars: Homo sapiens, NCI-H1299, 72 h, read-out: IC50 measured value H1299. As to the method:
(§1) Compound solutions of different concentration gradients were prepared. DMSO was dissolved to a concentration of 10 mM test compound and 10 mM reference compound AZD1775, and the compounds were serially diluted in culture medium for a total of 9 dose points, with 2 parallel replicates set at each concentration. The cell growth group without compound was used as a positive control (maximum signal control) and the medium was used as a negative control (minimum signal control), while ensuring that the final level of DMSO in each reaction well was 0.2%. After removing the medium from the 384-well plate, 25 ul of the configured compound at different concentrations was transferred into the well plate and the compound and cells were incubated in the cell incubator at 37° C. with 5% CO2 for 3 days.
(§2) The 384-well plates were removed from the cell incubator and allowed to equilibrate for 1 h to room temperature. 25 ul of Cell Titer-Glo assay was added to each well, lysed on a shaker for 2 min and then read out (Luminescence) using a BMG PHERAStar after 10 min incubation. Calculate the inhibition rate from the luminescence signal: first calculate the average of the positive control (maximum signal control) and the negative control (minimum signal control).
(§3) [formula] to calculate the rate of inhibition of the cells by different concentrations of the compounds. The IC50 of the compound on cell activity inhibition was calculated by fitting a log(inhibitor) vs. response-Variable slope model to GraphPad Prism 6. The fitted equation was: Y=Bottom+(Top−Bottom)/(1+10^((Log IC50−X)*HillSlope)), where Y represents the rate of inhibition and X represents the concentration of the known compound after Log.

The next data set is described as follows: Solubility test. In kind it is physicochemical. The conditions noted are these: aqueous buffer, thermodynamic from solid; buffer solution, shaken at constant temperature 24 h. As to the method: The compound was placed in a buffer solution and shaken at constant temperature for 24 h. […] Chromatographic conditions: C18 column, mobile phase A: 0.02 M potassium dihydrogen phosphate:acetonitrile=90:10, mobile phase B: acetonitrile; V: 1.0 ml/min, T: 35° C., λ: 210 nm.

A short description of data set [1]: Metabolic stability of liver microsomes in vitro (human). In kind it is in vitro ADME. Particulars: read-out: Human T1/2/min. The protocol:
(§4) Microsomes were taken out from the −80° C. refrigerator, rapidly melted in a 37° C. water bath and placed on ice until ready to use. The test article was diluted with DMSO to prepare a 10 mM stock solution, and then diluted with acetonitrile to a 0.5 mM secondary stock solution. The microsomes were diluted to 0.75 mg/ml using Buffer C; the secondary stock solution was then added to a final concentration of 1.5 μM of compound as working solution, based on n=2, 5 time points, 350 μL of each compound was prepared and placed on ice prior to use. NADPH was diluted with Buffer C to a working solution of 6 mM for the starter solution. An acetonitrile solution containing an internal standard was prepared as the precipitant, and Verapamil-HCl was chosen as the internal standard at a concentration of 4 ng/ml.
(§5) A round-bottom well plate was taken, noted as the reaction plate, and the prepared working solution for each compound was dispensed into the well plate according to the number of replicates and time points (0 h samples are also added to the reaction plate), 30 μL/well; the plate was incubated at 37° C. for 10 min. A separate plate with pointed bottom wells, noted as a precipitation plate, was added with 135 μL precipitant per well; 0 h samples were transferred to the plate after 10 min incubation and 15 μL of starter solution was added; the plate was placed on ice before centrifugation.
(§6) The diluted starter solution was added in sufficient quantity to the dispensing plate to facilitate the multichannel pipette aspiration operation.
(§7) The reaction was carried out on a warm incubation shaker and 15 μL of starter solution/sample is added to the plate using a multichannel pipette. The reaction was mixed with a slight shake to initiate the reaction, which was accurately timed and recorded using a timer;
(§8) After the reaction time had elapsed, all the solution in the plate was aspirated using the multichannel pipette and added to the precipitation plate to terminate the reaction at that point in time. After all reactions had been terminated, the plates were shaken for ten minutes on a plate shaker at 600 rpm to precipitate the protein. The plate was centrifuged at 4° C. for 15 minutes at maximum rpm. 80 μL of supernatant was taken, 320 μL of pure water was added and mixed for LC-MS analysis.
(Microsomes from liver hold many membrane-bound enzymes, among them those of drug oxidation.)

The nature of data set [2]: Metabolic stability of liver microsomes in vitro (mouse). The class given is in vitro ADME. Particulars: read-out: Mouse T1/2/min. The protocol: as §4, §5, §6, §7, §8
A further data set concerns MIA Paca-2 cells. Kind of data set: Anti-proliferative effect by Cell Titer-Glo, MIA Paca-2. The class given is cell-based. Particulars: Homo sapiens, 72 h; MIA Paca-2 cells, 3 days, Cell Titer-Glo; read-out: IC50 measured value MIA Paca-2. The protocol:
as §1, §2, §3
A general note: ATP-based viability assays read luminescence as a measure of living cells.

Data set [3] can be described thus: Membrane permeability study (Caco-2). In kind it is in vitro ADME. Particulars: human; for efflux ratio at 90 min, 10 µM: Caco-2, pH 7.4, read-out: Efflux Ration; for Papp A→B at 90 min, 10 µM / Papp B→A at 90 min, 10 µM: pH 7.4, Caco-2, 10 μM; for Papp A→B at 90 min, 10 µM: A to B; for Papp B→A at 90 min, 10 µM: B to A. The protocol:
Caco-2 cells were purchased from the […] (Rockville, MD). The cell culture medium was modified Eagle's medium (MEM) containing 10% inactivated fetal bovine serum and 1% non-essential amino acids. Cells were inoculated on polycarbonate filter membranes (Cat no. 3396) and incubated at 37° C. in a 5% CO2 incubator.
The cells were incubated for 21-28 days after inoculation for transport experiments and the apparent permeability (Papp) of Lucifer Yellow was used to characterize and verify the compactness of the cell monolayer. A stock solution of 10 mM was prepared by dissolving the compound in DMSO and diluted using Hanks Balanced Salt Solution (HBSS, Invitrogen, Cat #14025-092) containing 25 mM HEPES (pH 7.4) to obtain the working solution. A 10 μM working solution of the compound to be tested was added to the apical side and basolateral side of Caco-2 and incubated at 37° C. for 90 min. After the incubation, dilute the samples on the apical side and basolateral side, and the concentrations of compounds on the apical and basolateral sides were detected by LC-MS/MS, and the concentrations of the compounds were quantified by standard curve.

The nature of data set [4]: Compound pharmacokinetics in mice. The conditions noted are these: male ICR mice, oral gavage 10 mg/kg, plasma. In kind it is in vivo. As to the method: To investigate the pharmacokinetic properties of the compound in mice, six male ICR mice were given the compound by oral gavage (10 mg/kg) at the corresponding dose, and each route of administration was divided into two groups: group A mice had anticoagulated whole blood collected at 5 min, 30 min, 2 h and 8 h after administration, while group B mice had anticoagulated whole blood collected at 15 min, 1 h, 4 h and 24 h after administration, isolated plasma;
The plasma concentrations of the compounds were determined by LC-MS using a standard curve calibration method. Plasma concentration-time data were fitted to pharmacokinetic parameters using Winnolin 5.2 software.

[5] abbreviates: H1299 cells, 3 days, Cell Titer-Glo.

T1 sequence (P30291 whole entry): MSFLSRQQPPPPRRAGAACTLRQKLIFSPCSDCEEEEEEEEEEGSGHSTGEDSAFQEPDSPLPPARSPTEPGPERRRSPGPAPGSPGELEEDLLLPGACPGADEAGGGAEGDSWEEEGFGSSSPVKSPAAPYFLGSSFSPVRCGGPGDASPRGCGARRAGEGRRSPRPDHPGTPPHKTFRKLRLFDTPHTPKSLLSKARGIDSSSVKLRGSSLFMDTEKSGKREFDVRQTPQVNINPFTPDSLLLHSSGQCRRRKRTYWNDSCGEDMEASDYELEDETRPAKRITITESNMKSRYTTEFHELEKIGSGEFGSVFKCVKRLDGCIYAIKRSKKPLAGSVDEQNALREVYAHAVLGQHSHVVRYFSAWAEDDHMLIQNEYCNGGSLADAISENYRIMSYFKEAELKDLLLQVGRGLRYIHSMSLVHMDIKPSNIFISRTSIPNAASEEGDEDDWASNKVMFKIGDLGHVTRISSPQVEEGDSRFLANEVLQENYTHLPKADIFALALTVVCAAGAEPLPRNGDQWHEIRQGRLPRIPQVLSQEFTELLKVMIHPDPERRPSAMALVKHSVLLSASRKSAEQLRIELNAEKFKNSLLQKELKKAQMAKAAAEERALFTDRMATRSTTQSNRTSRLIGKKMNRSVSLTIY

For the compound `CN1CCN(c2ccc(Nc3ncc4cnn(-c5cccc(C6(C#N)CC6)n5)c4n3)cc2)CC1` [Compound 3], the IC50 lay in the range of 10 to 100 nM on Wee1 protein and 1000 to 5000 nM in the data set with H1299 cells. Further, the concentration in solution in the data set “Solubility test” (solubility at 24 h) was 60 µg/mL (≈ 133 µM).

Take `CN1CCC(c2ccc(Nc3ncc4cnn(-c5cccc(N=S(C)(C)=O)n5)c4n3)cc2)CC1` [Compound 18]: the half-life at 1 µM in data set [1] and in data set [2] was above 120 min throughout. In addition, the results for the IC50 on Wee1 protein, in the data set on H1299 cells (setting [5]) and with MIA Paca-2 cells were 1 to 10 nM, 1000 to 5000 nM and 100 to 1000 nM, respectively.

Take `CN1CCN(c2ccc(Nc3ncc4cnn(-c5ccc6c(c5)C(C)(O)CO6)c4n3)cc2)CC1` (centres unmarked) [Compound 40]: in data set [2], the half-life at 1 µM turned out to be 20.4 min. For the same compound, the IC50 on Wee1 protein was 10 to 100 nM. For the same compound, in the data set with H1299 cells (setting [5]), the IC50 was 100 to 1000 nM. Further, in data set [3], the efflux ratio at 90 min, 10 µM worked out at 0.89; the Papp A→B at 90 min, 10 µM was found to be 18.6 ×10⁻⁶ cm/s; the apparent permeability from basolateral to apical (Papp B→A) at 90 min, 10 µM worked out at 16.6 ×10⁻⁶ cm/s. Moreover, the concentration for half-maximal inhibition (IC50) in the data set on MIA Paca-2 cells fell in the range of 100 to 1000 nM. Further, the Cl_pred in data set [4] worked out at 24.3 L/h/kg. The same compound displayed a Cmax in data set [4] (mouse) of 377 ng/mL. Besides, in data set [4] (mouse, read-out: AUCinf—Pred), the AUC(0-inf) came to 493 ng·h/mL. Besides, in data set [4] (mouse, read-out: T½ (converted)), the half-life is 42 min.

On to `CCn1cnc2ccc(-n3ncc4cnc(Nc5ccc(N6CCN(C)CC6)cc5)nc43)cc21` [Compound 45], for which the half-life at 1 µM in data set [2] was found to be 10.3 min. In addition, on Wee1 protein, the IC50 is 10 to 100 nM. In the data set on H1299 cells (setting [5]), the IC50 is 100 to 1000 nM. In data set [3], the efflux ratio at 90 min, 10 µM worked out at 1.79; the apical-to-basolateral permeability (Papp A→B) at 90 min, 10 µM amounted to 4.09 ×10⁻⁶ cm/s; the basolateral-to-apical permeability (Papp B→A) at 90 min, 10 µM amounted to 7.34 ×10⁻⁶ cm/s. In the data set with MIA Paca-2 cells, the IC50 lay in the range of 100 to 1000 nM.
